According to patent publication US20180265934A1, “COINCIDENCE REPORTER GENE SYSTEM” (The United States of America, as represented by the …, priority 2013, published 2018):
Structures can show the parent of a compound that is named as a salt. Where two headings read alike, the source gives them in different places. Where a SMILES comes first, the peptide text is derived from it. The star is where a group is joined. Cbz = O=C(OCc1ccccc1)*

Assays:
[1] = tested on: cAMP-response element (CRE) / CREB pathway; test: LOPAC1280 qHTS, 4×CRE-driven FLuc-P2A-RLuc coincidence reporter (pCI-6.24) in GripTite 293 MSR cells; format: cell-based
Method: This protocol measures bioluminescence derived from both FLuc and RLuc expression from a single assay. […] Sixteen hours after transfection, cells were trypsinized and then dispensed at 2,000 cells/20 μL/well in 384-well tissue culture treated white/solid bottom plates (Greiner Bio-One North America, Monroe, N.C.). The assay plates were incubated at 37° C. for 10 hours before adding the DUAL-GLO detection reagent (Promega). Luminescence from luciferase activity was detected by using a VIEWLUX plate reader (PerkinElmer, Waltham, Mass.).
Sixteen hours after transfection, cells were trypsinized and then dispensed at 500 cells/4 μL/well in 1,536-well tissue culture treated white/solid bottom plates (Greiner Bio-One North America) using a multidrop combi dispenser (Thermo Fisher Scientific). […] The assay plates were incubated at 37° C. for 10 hours before adding the DUAL-GLO detection reagent (3.5 μL+3.5 μL for each well) (Promega). Luminescence from luciferase activity was detected by using VIEWLUX (PerkinElmer). Each experimental plate contained forskolin as a positive control and DMSO as a negative control. Percentage activity was defined as the percentage signal relative to forskolin (100%) and DMSO (0%).

[2] = tested on: cAMP-response element (CRE), adenylyl cyclase signaling; test: Compound test, 24-point titration, 4×CRE-driven FLuc-P2A-RLuc (pCI-6.24), 384-well; format: cell-based; details: PTC124 on FLuc, BTS on RLuc; relative to non-treated control
Method: For the compound test, forskolin, PTC124 and BTS were prepared in a 24-point intraplate titration format and pre-diluted in the cell culture medium. Purified pCI-6.24 construct was transfected into GRIPTITE 293 MSR cells (Life Technologies). Sixteen hours post transfection, cells were trypsinized and then dispensed at 2,000 cells/15 μL/well in 384-well tissue culture treated white/solid bottom plates (Greiner Bio-One North America). Five μL of pre-diluted compound was transferred into assay plates, resulting in a final concentration ranging from 0.027 nM to 227 μM (forskolin) and 0.011 nM to 91 μM (PTC124 and BTS). The assay plates were incubated at 37° C. for 10 hours. FLuc and RLuc activities were then detected using DUAL-GLO reagent (Promega) and a VIEWLUX plate reader (PerkinElmer). Concentration-response curves and concentrations of half-maximal activity (EC50) for each compound were generated by using PRISM 4 software (GraphPad Software, Inc., La Jolla, Calif.).

[3] = tested on: PARK2 (Parkin) gene expression; test: Compound library screening, Parkin coincidence reporter cell line (FLuc-P2A-NLuc in PARK2 locus, BE(2)-M17 cells), 1536-well; format: cell-based, human; details: 24 h, titration
Method: Construction of the Parkin coincidence reporter cell line by TALEN-mediated genome editing was carried out as follows. To generate a double-strand cleavage of the genomic DNA in the first codon of the PARK2 gene, constructs encoding transcription activator-like effector nuclease (TALEN) pairs (Right and Left) encoding components of the heterodimeric FokI nuclease were generated as described by Huang et al., Nature Biotechnology, 29: 699-700 (2011). The TALEN pair was designed to generate a double-strand cleavage at or near the first translation codon (ATG) within the Parkin gene. These constructs were transfected with Lipofectamine LTX (Life Technologies) into BE(2)-M17 cells (ATCC) […] along with a GFP-expressing marker plasmid and the coincidence reporter donor plasmid. After 48 hours of incubation in a tissue culture incubator, GFP-positive cells were sorted by FACS analysis and single clones were isolated and expanded. Once sufficient cell populations for each clone were achieved, analysis of correct genomic insertion of the Fluc-P2A-NLuc-PEST-PolyA coincidence reporter cassette that replaced the “ATGATAG” (SEQ ID NO: 362) sequence at the […] of the PARK2 gene exon 1 was ascertained by PCR and DNA sequencing of genomic DNA preparations (QIAGEN).
Compound library screening in 1536-well plates was carried out as follows. The Parkin coincidence reporter cell line was seeded at a density of 2000 cell/well into white, solid bottom, tissue-culture treated (Greiner Bio-One), 1536-well microplates in a total of 5 μL/well of culture medium. After a 16 hour incubation in a tissue-culture incubator, a compound pin tool (Wako) was used to transfer 20 nL of compound dissolved in DMSO for library plates to the assay plates. Compounds were present in either a 6 or 12-point titration in the library plates. DMSO vehicle, CCCP, and PTC-124 were also added to the designated control well. After a 24 hour incubation in the tissue culture incubator, the volume in each well of both plates was reduced to 2 μL with a microplate aspiration system (BioTek) and then 2 μL of Firefly Luciferase assay reagent (Promega) was added to every well each plate and luminescent signal from each well of each plate was measured on a VIEWLUX plate reader (PerkinElmer). Following the first read, 2 μL of NanoLuc assay reagent (Promega) including a proprietary firefly luciferase inhibitor (to quench the firefly reaction) was added to every well of each plate. After a second 15 minute incubation at room temperature, the NanoLuc signal from each well of each plate was measured on the VIEWLUX. Raw luminescent signal is expressed as a % of the positive control (10 uM CCCP for NanoLuc and 500 nM PTC-124 for FLuc).

[4] = Table 5, coincident activators; FLuc readout, 10 h, ~4 nM to 57 μM; read-out: FLuc EC50
[5] = Table 5, coincident activators; RLuc readout, 10 h, ~4 nM to 57 μM; read-out: RLuc EC50
[6] = GripTite 293 MSR, 10 h, Table 5, coincident activators; FLuc readout, 10 h, ~4 nM to 57 μM; read-out: FLuc EC50
[7] = GripTite 293 MSR, 10 h, Table 5, coincident activators; RLuc readout, 10 h, ~4 nM to 57 μM; read-out: RLuc EC50
[8] = GripTite 293 MSR, 10 h, Table 6, compounds activating RLuc only; RLuc readout, 10 h; read-out: RLuc EC50
[9] = GripTite 293 MSR; Table 6, compounds activating RLuc only; RLuc readout, 10 h; read-out: RLuc EC50
[10] = Table 6, compounds activating RLuc only; RLuc readout, 10 h; read-out: RLuc EC50

| Structure (SMILES) | Ratio F/R ([1]; FLuc EC50 / RLuc EC50, Table 5) | EC50 [1, 6] | EC50 [1, 7] | also measured |
| --- | --- | --- | --- | --- |
| NC(=O)C1=CN([C@@H]2O[C@H](COP(=O)(O)OP(=O)(O)OC[C@H]3O[C@@H](n4cnc5c(N)ncnc54)[C@H](OP(=O)(O)O)[C@@H]3O)[C@@H](O)[C@H]2O)C=CC1 [compound 16, NADPH tetrasodium] | 0.81 |  |  | EC50 [1, 4]: 18.2 µM; EC50 [1, 5]: 22.4 µM |
| OC[C@H]1O[C@@H](n2cnc3c(NC4CCCC4)ncnc32)[C@H](O)[C@@H]1O [compound 6, N6-Cyclopentyladenosine] | 0.75 | 0.95 µM | 1.26 µM |  |
| Nc1ccc(CCNc2ncnc3c2ncn3[C@@H]2O[C@H](CO)[C@@H](O)[C@H]2O)cc1 [compound 8, N6-2-(4-Aminophenyl)ethyladenosine] | 1.56 | 1.45 µM | 0.93 µM |  |
| Nc1nc(Cl)nc2c1ncn2[C@@H]1O[C@H](CO)[C@@H](O)[C@H]1O [compound 11, 2-Chloroadenosine] | 1.13 | 0.43 µM | 0.38 µM |  |
| OC[C@H]1O[C@@H](n2cnc3c(NC4CCCCC4)ncnc32)[C@H](O)[C@@H]1O [compound 5, N6-Cyclohexyladenosine] | 0.67 | 16.9 µM | 25.1 µM |  |
| Cc1ccccc1CNc1ncnc2c1ncn2[C@@H]1O[C@H](CO)[C@@H](O)[C@H]1O [compound 3, Metrifudil] | 2.20 | 1.34 µM | 0.61 µM |  |
| OC[C@H]1O[C@H](n2cnc3c(N[C@H]4CCC[C@@H]4O)ncnc32)[C@H](O)[C@@H]1O [compound 7, GR 79236X] | 0.85 |  |  | EC50 [1, 4]: 2.69 µM; EC50 [1, 5]: 3.16 µM |
| CC1=NS(=O)(=O)c2cc(Cl)ccc2N1 [cpd 24, Diazoxide] |  |  |  | EC50 [1, 8]: 9.15 µM |
| Cc1ccc(S(=O)(=O)NCc2ccccc2)cc1 [BTS] |  |  |  | effect on reporter activity by reporter stabilization [2]: increase the activity of the reporters |
| C#CCOC(=O)C1=CCCN(C)C1 [cpd 18, Arecaidine propargyl ester hydrobromide (APE)] | 1.16 |  |  | EC50 [1, 4]: 3.59 µM; EC50 [1, 5]: 3.09 µM; FLuc and RLuc signal outputs in the screen ([1]; qHTS, both reporters): coincident FLuc and RLuc signal outputs |
| O=C(c1ccc(OCCN2CCCCC2)cc1)c1c(-c2ccc(O)cc2)sc2cc(O)ccc12 [cpd 26, Raloxifene hydrochloride] |  |  |  | EC50 [1, 8]: 12 µM |
| O=c1c(O)c(-c2ccc(O)c(O)c2)oc2cc(O)cc(O)c12 [Quercetin] |  |  |  | coincident reporter response (FLuc and NLuc) [3]: elicits a coincidence response from both FLuc and NLuc; modulation of endogenous Parkin expression [3]: genuine modulator of endogenous Parkin expression |
| CC(C)C[C@@H](C=O)NC(=O)[C@H](CC(C)C)NC(=O)[C@H](CC(C)C)NC(=O)OCc1ccccc1 [MG-132] (Cbz-Leu-Leu-Leu-aldehyde) |  |  |  | coincident reporter response (FLuc and NLuc) [3]: do not elicit a coincident reporter response; signal obtained through reporter interference [3]: NLuc signal is obtained through reporter interference |
| NC(=O)COc1c(F)cc(SCCNS(=O)(=O)c2ccccc2)cc1F [cpd 21, 2,6-Difluoro-4-[2-(phenylsulfonylamino)ethylthio]phenoxyacetamide] |  |  |  | EC50 [1, 9]: 21.4 µM |
| C[C@H](Cc1ccccc1)Nc1ncnc2c1ncn2[C@@H]1O[C@H](CO)[C@@H](O)[C@H]1O [cpd 1, R(−)-N6-(2-Phenylisopropyl)adenosine] | 3.32 |  |  | EC50 [1, 4]: 9.37 µM; EC50 [1, 5]: 2.82 µM |
| Oc1ccc(C=Cc2cc(O)cc(O)c2)cc1 [Resveratrol] |  |  |  | coincident reporter response (FLuc and NLuc) [3]: do not elicit a coincident reporter response; signal obtained through reporter interference [3]: FLuc signal is obtained through reporter interference |
| OC[C@H]1O[C@@H](n2cnc3c(Nc4ccccc4)ncnc32)[C@H](O)[C@@H]1O [cpd 2, N6-Phenyladenosine] | 0.87 | 12.7 µM | 14.6 µM |  |
| NC(=S)c1ccc[n+]([C@@H]2OC(COP(=O)([O-])OP(=O)(O)OC[C@H]3O[C@@H](n4cnc5c(N)ncnc54)[C@H](OP(=O)(O)O)[C@@H]3O)C(O)C2O)c1 (stereo in doubt) [compound 15, Thio-NADP sodium] | 0.95 |  |  | EC50 [1, 4]: 2.39 µM; EC50 [1, 5]: 2.51 µM |
| CCCCC#Cc1nc(NC)c2ncn([C@@H]3O[C@H](CO)[C@@H](O)[C@H]3O)c2n1 [compound 14, HEMADO] | 1.78 |  |  | EC50 [1, 4]: 2.69 µM; EC50 [1, 5]: 1.51 µM |
| NCCNS(=O)(=O)c1cccc2c(Cl)cccc12 [cpd 22, A3 hydrochloride] |  |  |  | EC50 [1, 10]: 15.8 µM |
| CNc1ncnc2c1ncn2[C@@H]1O[C@H](CO)[C@@H](O)[C@H]1O [compound 12, N6-Methyladenosine] | 1.26 | 16.7 µM | 13.3 µM |  |
| CCNC(=O)[C@H]1O[C@@H](n2cnc3c(N)ncnc32)[C@H](O)[C@@H]1O [compound 13, 5′-N-Ethylcarboxamidoadenosine] | 0.56 |  |  | EC50 [1, 4]: 0.3 µM; EC50 [1, 5]: 0.54 µM |
| CNC(=O)[C@H]1O[C@@H](n2cnc3c(NCc4ccc(N)cc4)ncnc32)[C@H](O)[C@@H]1O [compound 9, AB-MECA] | 3.51 |  |  | EC50 [1, 4]: 1.51 µM; EC50 [1, 5]: 0.43 µM |
| COc1ccc(Cl)cc1C(=O)NCCc1ccc(S(=O)(=O)NC(=O)NC2CCCCC2)cc1 [cpd 23, Glybenclamide] |  |  |  | EC50 [1, 8]: 30.4 µM |
| Nc1nc(Nc2ccccc2)nc2c1ncn2[C@@H]1O[C@H](CO)[C@@H](O)[C@H]1O [compound 4, 2-Phenylaminoadenosine] | 0.95 | 10.7 µM | 11.2 µM |  |
| N#CC(=C(/N)Sc1ccccc1N)/C(C#N)=C(\N)Sc1ccccc1N [cpd 25, U0126] |  |  |  | EC50 [1, 9]: 8.49 µM |
| Nc1nc(Cl)nc2c1ncn2[C@@H]1O[C@H](COP(=O)([O-])OP(=O)([O-])OP(=O)([O-])[O-])[C@@H](O)[C@H]1O.[Na+].[Na+].[Na+].[Na+] [compound 17, 2-Chloroadenosine triphosphate tetrasodium] | 2.96 | 11.5 µM | 3.89 µM |  |
| CNc1cc(NS(=O)(=O)c2ccc(N)cc2)nc(NC)n1 [compound 20, Ro 04-6790 hydrochloride] |  |  |  | EC50 [1, 10]: 2.05 µM |
